Experimental data taken from patent US20260217677A1, “ORGANIC COMPOUNDS AS NLRP3 INHIBITORS” (KODIAK SCIENCES, INC., priority 2023, published 2026).
pIC50: −log10 of the molar value.

test system: IL-1β release in U937 cells after NLRP3 activation; test: IL-1β release inhibition in U937 cells (MSD V-Plex); details: Homo sapiens, U-937, read-out: IL-1β IC50, Table 3; PMA-differentiated U937 cells, 1 μg/mL LPS 3 h, compound 30 min, 10 mM nigericin 1 h

Row | pIC50 | SMILES
1 | 7.30 to 8.30 | Cc1c(N[C@@H]2CCCN(CC34CC(O)(C3)C4)C2)nnc(-c2ccc(C(F)(F)F)cc2O)c1C [Example 68, (R)-3-((3-((6-(2-Hydroxy-4-(trifluoromethyl)phenyl)-4,5-dimethylpyridazin-3-yl)amino)piperidin-1-yl)methyl) bicyclo[1.1.1]pentan-1-ol]
2 | > 8.30 | Cc1cc(N[C@@H]2CCCN(CCOC(=O)N3CCC(O)CC3)C2)nnc1-c1ccc2sccc2c1O [Example 69, (R)-2-(3-((6-(4-Hydroxybenzo[b]thiophen-5-yl)-5-methylpyridazin-3-yl)amino)piperidin-1-yl)ethyl 4-hydroxypiperidine-1-carboxylate]
3 | > 8.30 | Cc1c(N[C@@H]2CCCN(C[C@H]3C[C@@H](O)C3)C2)nnc(-c2ccc3sccc3c2O)c1C [Example 73, 5-(6-(((R)-1-(((1s,3S)-3-Hydroxycyclobutyl)methyl)piperidin-3-yl)amino)-4,5-dimethylpyridazin-3-yl)benzo[b]thiophen-4-ol]
4 | > 8.30 | Cc1c(N[C@@H]2CCCN(CC3CC(O)C3)C2)nnc(-c2ccc3sccc3c2O)c1C (stereo partly drawn) [Example 74, 5-(6-(((R)-1-(((1r,3R)-3-Hydroxycyclobutyl)methyl)piperidin-3-yl)amino)-4,5-dimethylpyridazin-3-yl)benzo[b]thiophen-4-ol]
5 | > 8.30 | Cc1c(N[C@@H]2CCCN(CCOC(=O)N3CCC(O)CC3)C2)nnc(-c2ccc(C(F)(F)F)cc2O)c1C [Example 75, (R)-2-(3-((6-(2-Hydroxy-4-(trifluoromethyl)phenyl)-4,5-dimethylpyridazin-3-yl)amino)piperidin-1-yl)ethyl 4-hydroxypiperidine-1-carboxylate]

same assay, conditions: Homo sapiens, U-937, read-out: IL-1β IC50, Table 4; PMA-differentiated U937 cells, 1 μg/mL LPS 3 h, compound 30 min, 10 mM nigericin 1 h

Row | SMILES | pIC50
6 | Cc1cc(N[C@@H]2CCCN(CC(=O)N3CC(N)C3)C2)nnc1-c1ccc(C(F)(F)F)cc1O [Example 77, (R)-1-(3-Aminoazetidin-1-yl)-2-(3-((6-(2-hydroxy-4-(trifluoromethyl)phenyl)-5-methylpyridazin-3-yl)amino)piperidin-1-yl)ethan-1-one] | 7.30 to 8.30
7 | Cc1cc(N[C@@H]2CCCN(CCN)C2)nnc1-c1ccc(C(F)(F)F)cc1O [Example 78, (R)-2-(6-((1-(2-Aminoethyl)piperidin-3-yl)amino)-4-methylpyridazin-3-yl)-5-(trifluoromethyl)phenol] | > 8.30
8 | Cc1cc(N[C@@H]2CCCN(CC(=O)N(C)CCN)C2)nnc1-c1ccc(C(F)(F)F)cc1O [Example 79, (R)—N-(2-Aminoethyl)-2-(3-((6-(2-hydroxy-4-(trifluoromethyl)phenyl)-5-methylpyridazin-3-yl)amino)piperidin-1-yl)-N-methylacetamide] | 6.30 to 7.30
9 | Oc1cc(C(F)(F)F)ccc1-c1nnc(N[C@@H]2CCCN(C3CNC3)C2)c2c1CCC2 [Example 80, (R)-2-(4-((1-(Azetidin-3-yl)piperidin-3-yl)amino)-6,7-dihydro-5H-cyclopenta[d]pyridazin-1-yl)-5-(trifluoromethyl)phenol] | 7.30 to 8.30
10 | Oc1cc(F)ccc1-c1nnc(N[C@@H]2CCCN(C3CNC3)C2)c2c1CCC2 [Example 81, (R)-2-(4-((1-(Azetidin-3-yl)piperidin-3-yl)amino)-6,7-dihydro-5H-cyclopenta[d]pyridazin-1-yl)-5-fluorophenol] | 6.30 to 7.30
11 | Cc1cc(N[C@@H]2CCCN(CC(=O)N3CCC4(CC3)CC(N)C4)C2)nnc1-c1ccc(C(F)(F)F)cc1O [Example 82] | 7.30 to 8.30
12 | Cc1cc(N[C@@H]2CCCN(CC(=O)N3CCC(N)CC3)C2)nnc1-c1ccc(C(F)(F)F)cc1O [Example 83, (R)-1-(4-Aminopiperidin-1-yl)-2-(3-((6-(2-hydroxy-4-(trifluoromethyl)phenyl)-5-methylpyridazin-3-yl)amino)piperidin-1-yl)ethan-1-one] | 6.30 to 7.30
13 | Cc1cc(N[C@@H]2CCCN(C3CNC3)C2)nnc1-c1ccc(C(F)(F)F)cc1O [Example 84, (R)-2-(6-((1-(Azetidin-3-yl)piperidin-3-yl)amino)-4-methylpyridazin-3-yl)-5-(trifluoromethyl)phenol] | 7.30 to 8.30
14 | Cc1cc(N[C@@H]2CCCN(C3CCNCC3)C2)nnc1-c1ccc(C(F)(F)F)cc1O [Example 85, (R)-2-(6-([1,4′-Bipiperidin]-3-ylamino)-4-methylpyridazin-3-yl)-5-(trifluoromethyl)phenol] | 7.30 to 8.30
15 | Cc1cc(N[C@@H]2CCCN(C3CCN(C(=O)N4CCNCC4)CC3)C2)nnc1-c1ccc(C(F)(F)F)cc1O [Example 86, (R)-(3-((6-(2-hydroxy-4-(trifluoromethyl)phenyl)-5-methylpyridazin-3-yl)amino)-[1,4′-bipiperidin]-1′-yl) (piperazin-1-yl)methanone] | 7.30 to 8.30
16 | Cc1cc(N[C@@H]2CCCN(C3CCN(C(=O)N4CCC(N)CC4)CC3)C2)nnc1-c1ccc(C(F)(F)F)cc1O [Example 87, (R)-(4-Aminopiperidin-1-yl) (3-((6-(2-hydroxy-4-(trifluoromethyl)phenyl)-5-methylpyridazin-3-yl)amino)-[1,4′-bipiperidin]-1′-yl)methanone] | 6.30 to 7.30
17 | Cc1cc(C(F)(F)F)cc(O)c1-c1ccc(N[C@@H]2CCCN(C3CNC3)C2)nn1 [Example 88, (R)-2-(6-((1-(Azetidin-3-yl)piperidin-3-yl)amino)pyridazin-3-yl)-3-methyl-5-(trifluoromethyl)phenol] | 7.30 to 8.30
18 | Cc1cc(N[C@@H]2CCCN(C3CC(N)C3)C2)nnc1-c1ccc(C(F)(F)F)cc1O (stereo partly drawn) [Example 89, (R)-2-(6-((1-(3-Aminocyclobutyl)piperidin-3-yl)amino)-4-methylpyridazin-3-yl)-5-(trifluoromethyl)phenol] | 7.30 to 8.30
19 | Cc1cc(N[C@@H]2CCCN(C(=O)CN)C2)nnc1-c1ccc(C(F)(F)F)cc1O [Example 92, (R)-2-Amino-1-(3-((6-(2-hydroxy-4-(trifluoromethyl)phenyl)-5-methylpyridazin-3-yl)amino)piperidin-1-yl)ethan-1-one] | 7.30 to 8.30
20 | Cc1cc(N[C@@H]2CCCN(CC(=O)N3CCC4(CCNCC4)CC3)C2)nnc1-c1ccc(C(F)(F)F)cc1O [Example 93, (R)-2-(3-((6-(2-Hydroxy-4-(trifluoromethyl)phenyl)-5-methylpyridazin-3-yl)amino)piperidin-1-yl)-1-(3,9-diazaspiro[5.5]undecan-3-yl)ethan-1-one] | 6.30 to 7.30

Other lines, results leading:

Row | pIC50 | SMILES
21 | < 6.30 | Cc1cc(N[C@@H]2CCCN(CC(=O)NC3CNC3)C2)nnc1-c1ccc(C(F)(F)F)cc1O [Example 94, (R)—N-(Azetidin-3-yl)-2-(3-((6-(2-hydroxy-4-(trifluoromethyl)phenyl)-5-methylpyridazin-3-yl)amino)piperidin-1-yl)acetamide]
22 | 6.30 to 7.30 | Cc1cc(N[C@@H]2CCCN(CC(=O)NC3CCNCC3)C2)nnc1-c1ccc(C(F)(F)F)cc1O [Example 95, (R)-2-(3-((6-(2-Hydroxy-4-(trifluoromethyl)phenyl)-5-methylpyridazin-3-yl)amino)piperidin-1-yl)-N-(piperidin-4-yl)acetamide]
23 | 7.30 to 8.30 | Cc1cc(N[C@@H]2CCCN(C(=O)C(F)(F)CN)C2)nnc1-c1ccc(C(F)(F)F)cc1O [Example 96, (R)-3-Amino-2,2-difluoro-1-(3-((6-(2-hydroxy-4-(trifluoromethyl)phenyl)-5-methylpyridazin-3-yl)amino)piperidin-1-yl) propan-1-one]
24 | 7.30 to 8.30 | Cc1cc(N[C@@H]2CCCN(CC(F)(F)CN)C2)nnc1-c1ccc(C(F)(F)F)cc1O [Example 97, (R)-2-(6-((1-(3-Amino-2,2-difluoropropyl)piperidin-3-yl)amino)-4-methylpyridazin-3-yl)-5-(trifluoromethyl)phenol]
25 | 6.30 to 7.30 | Cc1cc(N[C@@H]2CCCN(C3CCN(CCN)CC3)C2)nnc1-c1ccc(C(F)(F)F)cc1O [Example 98, (R)-2-(6-((1′-(2-Aminoethyl)-[1,4′-bipiperidin]-3-yl)amino)-4-methylpyridazin-3-yl)-5-(trifluoromethyl)phenol]
26 | > 8.30 | Oc1cc(C(F)(F)F)ccc1-c1nnc(N[C@@H]2CCCN(C3CNC3)C2)c2c1COC2 [Example 99, (R)-2-(4-((1-(Azetidin-3-yl)piperidin-3-yl)amino)-5,7-dihydrofuro[3,4-d]pyridazin-1-yl)-5-(trifluoromethyl)phenol]
27 | 7.30 to 8.30 | Oc1cc(C(F)(F)F)ccc1-c1nnc(N[C@@H]2CCCN(C3CCNCC3)C2)c2c1COC2 [Example 100, (R)-2-(4-([1,4′-Bipiperidin]-3-ylamino)-5,7-dihydrofuro[3,4-d]pyridazin-1-yl)-5-(trifluoromethyl)phenol]
28 | 7.30 to 8.30 | NC1CC2(CCN(C(=O)CN3CCC[C@@H](Nc4nnc(-c5ccc(C(F)(F)F)cc5O)c5c4COC5)C3)CC2)C1 [Example 101, (R)-1-(2-Amino-7-azaspiro[3.5]nonan-7-yl)-2-(3-((4-(2-hydroxy-4-(trifluoromethyl)phenyl)-5,7-dihydrofuro[3,4-d]pyridazin-1-yl)amino)piperidin-1-yl)ethan-1-one]
29 | 6.30 to 7.30 | Cc1cc(N[C@@H]2CCCN(CC(=O)N3CCC4(CC3)CNC4)C2)nnc1-c1ccc(C(F)(F)F)cc1O [Example 102, (R)-2-(3-((6-(2-Hydroxy-4-(trifluoromethyl)phenyl)-5-methylpyridazin-3-yl)amino)piperidin-1-yl)-1-(2,7-diazaspiro[3.5]nonan-7-yl)ethan-1-one]
30 | 7.30 to 8.30 | Cc1cc(N[C@@H]2CCCN(CC(=O)N3CCNCC3)C2)nnc1-c1ccc(C(F)(F)F)cc1O [Example 103, (R)-2-(3-((6-(2-Hydroxy-4-(trifluoromethyl)phenyl)-5-methylpyridazin-3-yl)amino)piperidin-1-yl)-1-(piperazin-1-yl)ethan-1-one]
31 | 7.30 to 8.30 | Cc1cc(N[C@@H]2CCCN(CCN3CCNCC3)C2)nnc1-c1ccc(C(F)(F)F)cc1O [Example 104, (R)-2-(4-Methyl-6-((1-(2-(piperazin-1-yl)ethyl)piperidin-3-yl)amino)pyridazin-3-yl)-5-(trifluoromethyl)phenol]
